Experimental findings from ChEMBL document CHEMBL6109073, “Discovery of β-amino acid substituted naphthalene sulfonamide derivatives as potent Kelch-like ECH-associated protein 1-nuclear factor erythroid 2-related factor 2 (Keap1-Nrf2) protein-protein interaction inhibitors for ulcerative colitis management” (Eur J Med Chem, 2025) are described below.

Each structure is given as a SMILES string. Where only a bound is given, the exact number is not on record here.

Sequence of Keap1/Nrf2 (Q16236 whole entry): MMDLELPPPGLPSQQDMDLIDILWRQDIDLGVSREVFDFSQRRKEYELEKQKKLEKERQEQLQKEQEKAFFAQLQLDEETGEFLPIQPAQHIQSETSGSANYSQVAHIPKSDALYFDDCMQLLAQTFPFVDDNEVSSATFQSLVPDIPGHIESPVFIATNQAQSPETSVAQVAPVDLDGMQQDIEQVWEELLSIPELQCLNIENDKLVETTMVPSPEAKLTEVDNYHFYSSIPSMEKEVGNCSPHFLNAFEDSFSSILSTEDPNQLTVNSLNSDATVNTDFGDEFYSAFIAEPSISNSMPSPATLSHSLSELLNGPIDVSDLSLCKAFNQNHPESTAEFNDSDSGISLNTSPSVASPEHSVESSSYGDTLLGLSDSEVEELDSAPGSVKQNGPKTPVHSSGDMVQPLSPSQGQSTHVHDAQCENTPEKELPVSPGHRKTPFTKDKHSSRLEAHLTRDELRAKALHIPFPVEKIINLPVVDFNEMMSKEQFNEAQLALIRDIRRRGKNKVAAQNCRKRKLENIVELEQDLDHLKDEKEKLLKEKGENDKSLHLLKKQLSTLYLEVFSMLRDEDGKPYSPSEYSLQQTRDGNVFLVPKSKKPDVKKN
Sequence of Keap1/Nrf2 (Q14145 whole entry): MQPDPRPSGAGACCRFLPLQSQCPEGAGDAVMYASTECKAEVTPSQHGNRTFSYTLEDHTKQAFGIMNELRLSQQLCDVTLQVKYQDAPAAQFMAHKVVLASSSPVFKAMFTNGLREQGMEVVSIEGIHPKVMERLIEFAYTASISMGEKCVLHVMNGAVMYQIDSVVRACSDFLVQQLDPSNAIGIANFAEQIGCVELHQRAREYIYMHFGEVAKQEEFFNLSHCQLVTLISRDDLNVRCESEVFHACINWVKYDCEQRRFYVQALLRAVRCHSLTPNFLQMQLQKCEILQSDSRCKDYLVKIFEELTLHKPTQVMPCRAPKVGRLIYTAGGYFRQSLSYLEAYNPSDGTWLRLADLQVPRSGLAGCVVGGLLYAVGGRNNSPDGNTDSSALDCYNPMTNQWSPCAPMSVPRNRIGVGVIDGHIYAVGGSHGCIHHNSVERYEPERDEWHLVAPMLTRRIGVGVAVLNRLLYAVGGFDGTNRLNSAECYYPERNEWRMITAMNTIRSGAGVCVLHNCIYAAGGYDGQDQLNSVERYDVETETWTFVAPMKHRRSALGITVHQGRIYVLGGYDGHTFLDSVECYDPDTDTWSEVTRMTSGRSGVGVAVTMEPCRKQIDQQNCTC

This test addresses Keap1/Nrf2 (Homo sapiens, UniProt Q14145).
Description: Inhibition of Keap1 kelch domain (322 to 609 residues) (unknown origin)/Nrf2 (unknown origin) protein-protein interaction incubated for 30 mins by fluorescence polarization assay
What is called IC50 is the point on the concentration scale where inhibition reaches its midpoint. A high value points to a need for much substance. On to `C[C@@H](CC(=O)O)Nc1ccc(N(CC(=O)O)S(=O)(=O)c2ccc(C(F)(F)F)cc2)c2ccccc12`, for which the IC50 is 16.5 µM. The result for `Cc1cc(C)c(C)c(S(=O)(=O)N(CC(=O)O)c2ccc(N[C@@H](C)CC(=O)O)c3ccccc23)c1C` reads 1.61 µM; that for `Cc1cc(C)c(S(=O)(=O)Nc2ccc(N[C@@H](C)CC(=O)O)c3ccccc23)c(C)c1`, 2.28 µM. The value for `C[C@@H](CC(=O)O)Nc1ccc(N(CC(=O)O)S(=O)(=O)c2ccc(Cl)cc2)c2ccccc12` was 10.6 µM. The value for `COc1ccc(S(=O)(=O)Nc2ccc(N[C@@H](CC(=O)O)c3ccccc3)c3ccccc23)cc1` was above 50 µM; that for `C[C@@H](CC(=O)O)Nc1ccc(NS(=O)(=O)c2ccc(C(C)(C)C)cc2)c2ccccc12` was above 50 µM.

`COc1ccc(S(=O)(=O)N(CC(=O)O)c2ccc(N[C@@H](CC(=O)O)c3ccccc3)c3ccccc23)cc1` registered a 50% inhibitory concentration (IC50) of 13.9 µM. The value for `COc1ccc(S(=O)(=O)N(CC(=O)O)c2ccc(N[C@@H](C)CC(=O)O)c3ccccc23)cc1` was 8.21 µM; that for `COc1ccc(S(=O)(=O)Nc2ccc(N[C@@H](C)CC(=O)O)c3ccccc23)cc1` was above 50 µM. The value for `C[C@@H](CC(=O)O)Nc1ccc(NS(=O)(=O)c2ccc(C(F)(F)F)cc2)c2ccccc12` was 47.6 µM; that for `C[C@@H](CC(=O)O)Nc1ccc(N(CC(=O)O)S(=O)(=O)c2ccc(C(C)(C)C)cc2)c2ccccc12` was 10.1 µM; that for `C[C@@H](CC(=O)O)Nc1ccc(NS(=O)(=O)c2ccc(F)cc2)c2ccccc12` was above 50 µM. The result for `Cc1cc(C)c(C)c(S(=O)(=O)Nc2ccc(N[C@@H](C)CC(=O)O)c3ccccc23)c1C` reads 6.64 µM; that for `Cc1ccc(S(=O)(=O)Nc2ccc(N[C@@H](C)CC(=O)O)c3ccccc23)cc1`, 44 µM; that for `CCOc1ccc(S(=O)(=O)Nc2ccc(N[C@@H](C)CC(=O)O)c3ccccc23)cc1`, 33.4 µM. In turn, `C[C@@H](CC(=O)O)Nc1ccc(NS(=O)(=O)c2ccc(Cl)cc2)c2ccccc12` returned an IC50 above 50 µM. The result for `C[C@@H](CC(=O)O)Nc1ccc(N(CC(=O)O)S(=O)(=O)c2ccc(F)cc2)c2ccccc12` reads 23.7 µM. The value for `Cc1ccc(S(=O)(=O)N(CC(=O)O)c2ccc(N[C@@H](C)CC(=O)O)c3ccccc23)cc1` was 7.14 µM; that for `CCOc1ccc(S(=O)(=O)N(CC(=O)O)c2ccc(N[C@@H](C)CC(=O)O)c3ccccc23)cc1` was 8.82 µM.
